Like-named read-outs stand apart in the source and are kept apart here.
Target: T1, System xc− (Sxc−, glutamate/cystine antiporter) (Homo sapiens, UniProt Q9UPY5)
T1 construct: A number of glioma cell lines, including SNB-19, express markedly higher levels of Sxc^−; host or cells: SNB-19 human glioma cells
T1 sequence (Q9UPY5 1-501): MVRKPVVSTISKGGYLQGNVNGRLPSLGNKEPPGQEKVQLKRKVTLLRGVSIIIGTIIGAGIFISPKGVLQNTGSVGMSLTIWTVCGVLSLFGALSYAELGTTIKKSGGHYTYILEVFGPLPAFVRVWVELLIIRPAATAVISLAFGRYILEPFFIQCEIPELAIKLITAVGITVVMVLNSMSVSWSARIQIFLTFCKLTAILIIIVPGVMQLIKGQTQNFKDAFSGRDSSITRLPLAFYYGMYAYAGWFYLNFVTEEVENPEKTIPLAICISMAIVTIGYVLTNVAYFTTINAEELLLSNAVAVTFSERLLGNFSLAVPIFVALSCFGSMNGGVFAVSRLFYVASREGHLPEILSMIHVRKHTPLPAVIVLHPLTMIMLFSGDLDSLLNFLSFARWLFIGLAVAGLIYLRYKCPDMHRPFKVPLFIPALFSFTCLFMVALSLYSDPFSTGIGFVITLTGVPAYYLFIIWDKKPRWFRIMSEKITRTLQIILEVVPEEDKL
T1 sequence (P08195 1-529 partner): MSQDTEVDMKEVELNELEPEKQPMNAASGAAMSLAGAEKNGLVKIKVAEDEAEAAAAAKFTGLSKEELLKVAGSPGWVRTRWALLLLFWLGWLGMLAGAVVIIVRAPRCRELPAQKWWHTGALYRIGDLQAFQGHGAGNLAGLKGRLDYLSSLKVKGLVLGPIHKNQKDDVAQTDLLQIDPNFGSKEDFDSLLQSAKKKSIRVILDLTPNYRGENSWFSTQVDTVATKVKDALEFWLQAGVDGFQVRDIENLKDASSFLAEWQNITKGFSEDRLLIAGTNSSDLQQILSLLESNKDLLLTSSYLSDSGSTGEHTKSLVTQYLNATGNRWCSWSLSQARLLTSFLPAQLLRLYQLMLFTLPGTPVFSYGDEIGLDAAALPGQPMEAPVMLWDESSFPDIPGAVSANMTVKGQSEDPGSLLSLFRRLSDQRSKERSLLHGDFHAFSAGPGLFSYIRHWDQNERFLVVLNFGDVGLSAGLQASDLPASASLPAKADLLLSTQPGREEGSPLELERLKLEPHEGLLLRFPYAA
Assay: Inhibition of 3H-L-Glu uptake into SNB-19 glioma cells under Cl-dependent (Na-free) conditions
Format: cell-based
Conditions: for 3H-L-Glu Uptake (% control): 100 μM 3H-L-Glu, smaller number = greater inhibition; for inhibitory activity, ranking among compounds of Table 1: comment on Table 1
Procedure: SNB-19 glioma cells, purchased from American Type Culture Collection (Manassas, Va.), were grown in DMEM/F-12 medium (pH 7.4) containing 1 mM pyruvate and 16 mM NaHCO3 and supplemented with 10% fetal calf serum. The cells were cultured in 150 cm^2 flasks (Corning) and maintained at 37° C. in a humidified atmosphere of 5% CO2. In the ^3H-L-Glu uptake experiments, cells were seeded in 12 well culture plates (Costar) at a density of 5×10^4 cells/well and maintained for 3 days until 80-90% confluent. Protein concentrations were determined by the bicinchoninic acid (BCA) method (Pierce).
Uptake of ^3H-L-Glu into cultured cells was quantified using a modification of the procedure of Martin and Shane as previously described by Patel et al. (supra). Briefly, after removal of culture media, wells were rinsed three times and pre-incubated in 1 ml Na^+-free HEPES buffered (pH 7.4) Hank's balanced salt solution (HBHS) at 30° C. for 5 min. The Nat free buffer contained: 137.5 mM choline Cl, 5.36 mM KCl, 0.77 mM KH2PO4, 0.71 mM MgSO^4.7H2O, 1.1 mM CaCl2, 10 mM D-glucose, and 10 mM HEPES. Uptake was initiated by aspiration of the pre-incubation buffer and the addition of a 500 gl aliquot of Na^+-free transport buffer containing ^3H-L-Glu (4-16 mCi/m1) mixed with L-Glu (10-500 μM, final concentration). In those assays that evaluated inhibitor activity, the 500 gl aliquot of transport buffer contained both the ^3H-L-Glu and potential inhibitors to ensure simultaneous addition. Following a 5 min incubation at 30° C., the assays were terminated by three sequential 1 ml washes with ice cold buffer after which the cells were dissolved in 1 ml of 0.4 M NaOH for 24 h. An aliquot (200 μl) was then transferred into a 5 ml glass scintillation vial and neutralized with the addition of 5 gl glacial acetic acid followed by 3.5 ml Liquiscint© scintillation fluid (National Diagnostics) to each sample. Incorporation of radioactivity was quantified by liquid scintillation counting (LSC, Beckman LS 6500). Values are reported as mean±S.E.M. and are corrected for non-specific uptake (e.g., leakage and binding) by subtracting the amount of ^3H-L-Glu accumulation at 4° C.
The inhibitory activity of the compounds was determined by quantifying the ability of the analogues to reduce the accumulation of ^3H-L-Glu into human SNB-19 glioblastoma cells under Cl-dependent (Na-free) conditions. A number of glioma cell lines, including SNB-19, express markedly higher levels of Sxc^− and reduced levels of the sodium-dependent excitatory amino acid transporters (“EAATs”) than do primary astrocytes, making them well suited for pharmacological assays (Ye et al., Compromised glutamate transport in human glioma cells: reduction-mislocalization of sodium-dependent glutamate transporters and enhanced activity of cystine-glutamate exchange, J Neurosci, 1999 Dec. 15, 19(24), 10767-77). The compounds of the invention were initially screened at a single concentration of substrate (100 μM ^3H-L-Glu) and isoxazole (500 μM) to confirm inhibitory activity. […] (The data are reported as % of control uptake, thus the smaller the number the greater the level of inhibition.)
A slope replot for 5-4-TFM-Benzyl-4-bis-TFM-HMICA is included in FIG. 3, (average Ki=3±1 μM, n=5). […] In the instance of 5-4-TFM-Benzyl-4-bis-TFM-HMICA the replot of I/Vmax,apparent vs. [I] was indeed linear and yielded a Ki of about 8 μM (plots not shown). […] As the identification of the di-substituted isoxazoles as noncompetitive inhibitors was unexpected, the kinetic data was also analyzed using the Eadie-Hofstee method as a second graphical approach.

[1] = SNB-19 cells, 3H-L-Glu uptake, read-out: KI 3H-L-Glu Uptake

pattern (mechanism) of inhibition (Michaelis-Menten, LWB and Eadie-Hofstee analyses, FIGS. 1-4) | 3H-L-Glu Uptake (% control) (compound 100 μM, SNB-19 cells) | Ki (replot of LWB graphs, plots not shown, read-out: Ki from 1/Vmax,apparent vs. [I] replot) | Ki (slope replot (FIG. 3), n=5, read-out: average Ki from LWB slope vs. [I] replot) | Ki [1] | inhibitory activity, ranking among compounds of Table 1 | 3H-L-Glu Uptake (% control) (compound 500 μM, SNB-19 cells) | inhibition of the System Xc- antiporter, in words (statement in the crystal structure description) | SMILES
noncompetitive inhibition | 14 % control | ~8 µM | 3 ± 1 µM |  |  |  |  | C/C(=N\Nc1cc(C(F)(F)F)cc(C(F)(F)F)c1)c1c(C(=O)O)noc1Cc1ccc(C(F)(F)F)cc1 [5-4-TFM-Benzyl-4-bis-TFM-HMICA]
 | 8 % control |  |  | 15 µM | greatest inhibitory activity |  |  | Cc1onc(-c2c3ccccc3c(Cl)c3ccccc23)c1C(=O)NC(Cc1cc(Br)c(O)c(Br)c1)C(=O)O (centres unmarked) [AIM-DBT, 2-(3-(10-chloroanthracen-9-yl)-5-methylisoxazole-4-carboxamido)-3-(3,5-dibromo-4-hydroxyphenyl)propanoic acid]
 | 8 % control |  |  |  | greatest inhibitory activity | 1 % control |  | Cc1onc(-c2c(OCc3ccccc3)ccc3ccccc23)c1C(=O)N[C@@H](Cc1cc(Br)c(O)c(Br)c1)C(=O)O [Compound 3ND-101, (2S)-2-(3-(2-(benzyloxy)naphthalen-1-yl)-5-methylisoxazole-4-carboxamido)-3-(3,5-dibromo-4-hydroxyphenyl)propanoic acid]
 | 52 % control |  |  | 25 µM |  |  |  | CN(C)c1cccc2c(S(=O)(=O)NC(Cc3cc(Br)c(O)c(Br)c3)C(=O)O)cccc12 (centres unmarked) [Danzyl-DBT, 3-(3,5-dibromo-4-hydroxyphenyl)-2-(5-(dimethylamino)naphthalene-1-sulfonamido)propanoic acid]
 | 23 % control |  |  |  |  | 6 % control |  | Cc1onc(-c2cccc3ccccc23)c1C(=O)NC(Cc1cc(Br)c(O)c(Br)c1)C(=O)O (centres unmarked) [LC-19, 3-(3,5-dibromo-4-hydroxyphenyl)-2-(5-methyl-3-(naphthalen-1-yl)isoxazole-4-carboxamido)propanoic acid]
 | 32 % control |  |  |  |  | 8 % control | potent inhibitor | COc1ccc2ccccc2c1-c1noc(C)c1C(=O)NC(Cc1cc(Br)c(O)c(Br)c1)C(=O)O (centres unmarked) [MOI-16, 3-(3,5-dibromo-4-hydroxyphenyl)-2-(5-methyl-3-(2-methoxynaphthalen-1-yl)isoxazole-4-carboxamido)propanoic acid]

From US20150368213A1, “Novel Inhibitors of System Xc-” (The University of Montana, Missoula, MT, priority 2014, published 2015)
